Values joined by “and” are separate entries in the source; they are usually repeats but may differ in a detail not shown here. Equal values may be shown once.
Columns and labels:
[1] = system: antibody for angiotensin I; assay: Radioimmunoassay standard reactions: competitive binding of labeled and unlabeled angiotensin I to antibody; design: species or system rabbit
Protocol: Antiserum (Rabbit) 1.4 μl
A series of standard prereaction mixtures was prepared by transferring 0.1 ml aliquots of standard unlabeled angiotensin I solutions from the standard vials to a series of reaction vials. Standard prereaction mixtures were prepared using the standard solutions containing 6, 3, 2, 1, 0.8, 0.6, and 0.3 ng/ml unlabeled angiotensin I, respectively. Two blank prereaction mixtures were prepared by adding 0.1 ml pH 9.0 buffer to a reaction vial.
Reaction mixtures were prepared and radioimmunoassay commenced by adding antiserum solution (0.1 ml) to each of the base unknown, generated unknown, standard, and blank prereaction mixtures. Antiserum was withheld from one reaction vial used as a control. The reaction mixtures contained in each vial were then mixed gently on a vortex and incubated for 1 hour at 37°C. After incubation was completed, each reaction vial was taken out of the water bath, the cap removed and an anion exchange resin strip immersed in the contents of the vial. The vial was then recapped and placed on a rotator for 30 minutes at room temperature (21°-23°C.). At the end of 30 minutes, the resin strip was removed from each vial and placed in an empty vial. Radioactivity of both the strip containing the unbound ("free") angiotensin I and the supernatant liquid containing the antibody bound ("bound") angiotensin I was counted, and the percentage bound angiotensin I was determined from the following relationship: [formula]
From the data of Tables I and II, a graph was prepared in which the percent bound angiotensin I was plotted against nanograms of unlabeled standard angiotensin I contained in the standard reaction solutions for the two sets of standard reactions. FIG. 1 is that graph. […]
Standard radioimmunoassay reactions were carried out using duplicate blanks and standard solutions respectively containing 0.03, 0.06, 0.08, 0.1, 0.2, 0.3 and 0.6 ng. unlabeled angiotensin I per ml. A control was also run in which no antiserum was added to the prereaction mixture. The procedure of Example 2 was followed, except that the temperature and period of incubation of the radioimmunoassay reaction were varied. The following combinations of time and temperature were utilized for these standard radioimmunoassay reactions: […]

[2] = system: angiotensinogen; assay: Plasma renin activity, as angiotensin I generation rate; assay type: biochemical, human
Protocol: Blood was drawn from patient three into a tube coated with EDTA and the plasma separated by centrifugation and cooled to 4°C. To one ml. of the cold plasma were added portions of 8-hydroxyquinoline inhibiting solution (10 μl) and dimercaprol inhibiting solution (10 μl). The resulting unknown plasma sample was transferred to a generation vial containing generation buffer solution and mixed.
The generation vial was placed in a water bath controlled at 37°C. and generation was carried out for 3 hours. At the end of this time, the generated unknown sample was removed from the water bath, cooled in an ice bath, and three 100 μl aliquots thereof transferred to three reaction vials to provide three generated unknown radioimmunoassay prereaction mixtures containing generated plasma, human serum albumin, sodium azide preservative, HCl, and ^125 I labeled angiotensin I.
The renin activity of patient three's plasma was indicated by the angiotensin I generation rate determined from the following relationship: [formula] The factor of 30 is used because the plasma is initially diluted three-fold, and only 0.1 ml of the dilute plasma is used in the radioimmunoassay, while the angiotensin I generation rate is based on 1 ml.
Another sample of patient three's plasma was assayed in the manner described in Example 2, except that 2,2-dimethyl glutaric acid was used in place of potassium acid phthalate as the buffering component of the generation mixture. Results of radioactivity counting on the base and generated radioimmunoassay reaction mixtures obtained in the assay of this example are set forth in Table IV.
Following the procedure described in Example 2, a renin activity radioimmunoassay was conducted on the plasma of patient two. The results of radioactive counting and the percent bound antigen for the duplicate standard radioimmunoassay reaction mixture are set forth in Tables V and VI.
Another sample of patient two's plasma was assayed in the manner described in Example 4, except that 2,2-dimethylglutaric acid was used in place of potassium acid phthalate as a buffering component of the generation mixture. Results of radioactive counting on the base and generated radioimmunoassay mixtures obtained in the assay of this example are set forth in Table VIII.
A renin activity radioimmunoassay was conducted on the plasma of patient one. The procedure described in Example 2 was followed except that only one set of reactions was carried out in establishing the standard curve. Results of radioactive counting and the percent bound antigen for the standard radioimmunoassay reaction mixtures are set forth in Table IX.
Another sample of patient one's plasma was assayed in the manner described in Example 6, except that 2,2-dimethylglutaric acid was used in place of potassium acid phthalate as the buffering component of the generation mixture. Results of radioactivity counting on the base and generated radioimmunoassay reaction mixtures, together with the angiotensin I content of the ungenerated and generated samples, are set forth in Table XI.

Molecule: Angiotensin I: decapeptide formed from angiotensinogen by renin; unlabeled standard in the radioimmunoassay (DRVYIHPFHL; Angiotensin-1; UniProt P01019 25-34, looked up)
- % Bound labeled angiotensin I ([1]; 0.03 ng unlabeled angiotensin I standard, 12°C, 1 hour): 38.3%
- % Bound labeled angiotensin I ([1]; 0.03 ng unlabeled angiotensin I standard, 12°C, 5 hours): 60.8%
- % Bound labeled angiotensin I ([1]; 0.03 ng unlabeled angiotensin I standard, 20°C, 1 hour): 46.52%
- % Bound labeled angiotensin I ([1]; 0.03 ng unlabeled angiotensin I standard, 20°C, 5 hours): 64.22%
- % Bound labeled angiotensin I ([1]; 0.03 ng unlabeled angiotensin I standard, 37°C, 1 hour): 56.33% and 55.20% and 54.06% and 54.27% and 56.75% and 54.34%
- % Bound labeled angiotensin I ([1]; 0.06 ng unlabeled angiotensin I standard, 12°C, 1 hour): 36.6%
- % Bound labeled angiotensin I ([1]; 0.06 ng unlabeled angiotensin I standard, 12°C, 5 hours): 52.9%
- % Bound labeled angiotensin I ([1]; 0.06 ng unlabeled angiotensin I standard, 20°C, 1 hour): 43.88%
- % Bound labeled angiotensin I ([1]; 0.06 ng unlabeled angiotensin I standard, 20°C, 5 hours): 62.08%
- % Bound labeled angiotensin I ([1]; 0.06 ng unlabeled angiotensin I standard, 37°C, 1 hour): 50.77% and 53.62% and 49.30% and 49.16% and 52.76% and 49.86%
- % Bound labeled angiotensin I ([1]; 0.08 ng unlabeled angiotensin I standard, 12°C, 1 hour): 34.7%
- % Bound labeled angiotensin I ([1]; 0.08 ng unlabeled angiotensin I standard, 12°C, 5 hours): 50.4%
- % Bound labeled angiotensin I ([1]; 0.08 ng unlabeled angiotensin I standard, 20°C, 1 hour): 37.90%
- % Bound labeled angiotensin I ([1]; 0.08 ng unlabeled angiotensin I standard, 20°C, 5 hours): 53.73%
- % Bound labeled angiotensin I ([1]; 0.08 ng unlabeled angiotensin I standard, 37°C, 1 hour): 49.01% and 48.63% and 48.16% and 48.27% and 48.93% and 45.64%
- % Bound labeled angiotensin I ([1]; 0.1 ng unlabeled angiotensin I standard, 12°C, 1 hour): 34.3%
- % Bound labeled angiotensin I ([1]; 0.1 ng unlabeled angiotensin I standard, 12°C, 5 hours): 47.5%
- % Bound labeled angiotensin I ([1]; 0.1 ng unlabeled angiotensin I standard, 20°C, 1 hour): 40.23%
- % Bound labeled angiotensin I ([1]; 0.1 ng unlabeled angiotensin I standard, 20°C, 5 hours): 50.27%
- % Bound labeled angiotensin I ([1]; 0.1 ng unlabeled angiotensin I standard, 37°C, 1 hour): 45.93% and 45.19% and 45.21% and 43.12% and 46.72% and 42.96%
- % Bound labeled angiotensin I ([1]; 0.2 ng unlabeled angiotensin I standard, 12°C, 1 hour): 27.2%
- % Bound labeled angiotensin I ([1]; 0.2 ng unlabeled angiotensin I standard, 12°C, 5 hours): 34.1%
- % Bound labeled angiotensin I ([1]; 0.2 ng unlabeled angiotensin I standard, 20°C, 1 hour): 31.21%
- % Bound labeled angiotensin I ([1]; 0.2 ng unlabeled angiotensin I standard, 20°C, 5 hours): 32.23%
- % Bound labeled angiotensin I ([1]; 0.2 ng unlabeled angiotensin I standard, 37°C, 1 hour): 35.75% and 35.05% and 29.50% and 28.39% and 34.97% and 30.79%
- % Bound labeled angiotensin I ([1]; 0.3 ng unlabeled angiotensin I standard, 12°C, 1 hour): 25.8%
- % Bound labeled angiotensin I ([1]; 0.3 ng unlabeled angiotensin I standard, 12°C, 5 hours): 24.4%
- % Bound labeled angiotensin I ([1]; 0.3 ng unlabeled angiotensin I standard, 20°C, 1 hour): 23.71%
- % Bound labeled angiotensin I ([1]; 0.3 ng unlabeled angiotensin I standard, 20°C, 5 hours): 25.25%
- % Bound labeled angiotensin I ([1]; 0.3 ng unlabeled angiotensin I standard, 37°C, 1 hour): 29.47% and 31.32% and 28.06% and 26.30% and 27.55% and 27.52%
- % Bound labeled angiotensin I ([1]; 0.6 ng unlabeled angiotensin I standard, 12°C, 1 hour): 15.9%
- % Bound labeled angiotensin I ([1]; 0.6 ng unlabeled angiotensin I standard, 12°C, 5 hours): 16.6%
- % Bound labeled angiotensin I ([1]; 0.6 ng unlabeled angiotensin I standard, 20°C, 1 hour): 15.54%
- % Bound labeled angiotensin I ([1]; 0.6 ng unlabeled angiotensin I standard, 20°C, 5 hours): 15.0%
- % Bound labeled angiotensin I ([1]; 0.6 ng unlabeled angiotensin I standard, 37°C, 1 hour): 17.21% and 16.50% and 17.98% and 17.40% and 17.61% and 16.72%

B1: Renin: proteolytic enzyme secreted by juxtaglomerular cells in the kidney (protein, UniProt P00797 67-406, looked up)
Renin: LTLGNTTSSVILTNYMDTQYYGEIGIGTPPQTFKVVFDTGSSNVWVPSSKCSRLYTACVYHKLFDASDSSSYKHNGTELTLRYSTGTVSGFLSQDIITVGGITVTQMFGEVTEMPALPFMLAEFDGVVGMGFIEQAIGRVTPIFDNIISQGVLKEDVFSFYYNRDSENSQSLGGQIVLGGSDPQHYEGNFHYINLIKTGVWQIQMKGVSVGSSTLLCEDGCLALVDTGASYISGSTSSIEKLMEALGAKKRLFDYVVKCNEGPTLPDISFHLGGKEYTLTSADYVFQESYSSKKLCTLAIHAMDIPPPTGPTWALGATFIRKFYTEFDRRNNRIGFALAR
- Renin activity ([2]; patient one plasma, glutarate generation buffer): 1.31 ng/mL/h
- Renin activity ([2]; patient one plasma, phthalate generation buffer): 0.849 ng/mL/h
- Renin activity ([2]; patient three plasma, glutarate generation buffer): 0.7 ng angiotensin I/ml/hr
- Renin activity ([2]; patient three plasma, phthalate generation buffer): 0.42 ng/mL/h
- Renin activity ([2]; patient two plasma, glutarate generation buffer): 2.91 ng/mL/h
- Renin activity ([2]; patient two plasma, phthalate generation buffer): 1.41 ng Angiotensin I/ml/hr

From patent publication US3966896A, “Radioimmunoassay for plasma renin activity” (Mallinckrodt, Inc., priority 1974, dated 1976)
